Experimental data reported in patent EP3170833B1, “20,23-PIPERIDINYL-5-O-MYCAMINOSYL-TYLONOLIDE POLYMORPHS” (Intervet International B.V., priority 2007, dated 2009).

How the values were obtained:
Type in all cases: physicochemical
[1] = Desolvation experiment: drying under vacuum
Method: A weight loss of from about 8.7-10% occurred due to tBME liberation. This weight loss corresponds to 0.8-0.9 tBME molecule per molecule of 20,23-dipiperidinyl-5-O-mycaminosyl-tylonolide, assuming essentially pure 20,23-dipiperidinyl-5-O-mycaminosyl-tylonolide. Almost all the weight loss occurs above 90°C, with a sharp step when the temperature increases to greater than 100°C. Thus, the majority of the weight loss occurs at temperatures greater than the boiling point of tBME.
Example 7. Preparation of the Form III polymorph of 20,23-dipiperidinyl-5-O-mycaminosyl-tylonolide. The Form III polymorph of 20,23-dipiperidinyl-5-O-mycaminosyl-tylonolide was prepared by drying, under vacuum at ambient temperature for 20 hours, the ethyl acetate S1 crystalline solvate of 20,23-dipiperidinyl-5-O-mycaminosyl-tylonolide (50 mg) prepared in accordance with Example 6.
Although this procedure was successfully repeated for forming S2 solvate crystals, additional batches of S2 solvate crystals were formed by dissolving an additional amount of the Form II polymorph of 20,23-dipiperidinyl-5-O-mycaminosyl-tylonolide in tert-butyl methyl ether, seeding S2 solvate crystals from the first batch, and removing the tert-butyl methyl ether. In one experiment, the S2 crystalline solvate was prepared by dissolving the Form II polymorph of 20,23-dipiperidinyl-5-O-mycaminosyl-tylonolide (245.7 mg) in tert-butyl methyl ether (0.5 ml), and slowly evaporating a portion of the solvent at ambient temperature. After no crystals formed, additional tert-butyl methyl ether was added, followed by seeding S2 solvate crystals from the first batch. The solvent was then allowed to evaporate completely. The FT-Raman spectrum for these crystals was approximately identical to the FT-Raman spectrum for the crystals from the first batch. […] The FT-Raman spectra of the crystals after each drying step coincided to the FT-Raman spectrum from the first batch.

[2] = Dynamic vapor sorption (DVS); settings: 25°C; for maximum water uptake: at 95% relative humidity
Method: Dynamic vapor sorption ("DVS") measurements were obtained with a Projekt Messtechnik SPS11-100n water vapor sorption analyzer. The samples were placed into aluminum crucibles on a microbalance, and allowed to equilibrate at 25°C and 50% relative humidity before initiating the following pre-defined humidity program at 25°C: 50-95-0-50% relative humidity, and scanning with a 5% change in relative humidity per hour and with iso-humid equilibration periods at extreme values.

Solubility in tBME = settings: solvent tBME
[3] = Thermogravimetry (TG / TG-FTIR): thermal stability; settings: N2 atmosphere, heating rate of 10°C/min
Method: Measurements of thermogravimetry coupled to Fourier transform infrared spectroscopy ("TG-FTIR") were obtained using a Netzsch Thermo-Microbalance TG 209 with a Bruker Vector 22 FT-IR Spectrometer using an aluminum crucible (with micro-hole or open), N2 atmosphere, heating rate of 10°C/min, and temperature range of 25-250°C.
Thermogravimetry ("TG") measurements were obtained with a Perkin Elmer TGS 2 thermogravimetric analyzer using an aluminum crucible (open), N2 atmosphere, heating rate of 10°C/min, and temperature range of 25-500°C.

## CCC1OC(=O)CC(O)C(C)C(OC2OC(C)C(O)C(N(C)C)C2O)C(CCN2CCCCC2)CC(C)C(=O)C=CC(C)=CC1CN1CCCCC1 (stereo not drawn) [ethyl acetate S1 crystalline solvate, 20,23-dipiperidinyl-5-O-mycaminosyl-tylonolide]
[1]; vacuum drying at ambient temperature
  conversion by vacuum drying: readily converted into the Form III polymorph

## CCC1OC(=O)CC(O)C(C)C(OC2OC(C)C(O)C(N(C)C)C2O)C(CCN2CCCCC2)CC(C)C(=O)C=CC(C)=CC1CN1CCCCC1 (stereo not drawn) [Form I polymorph, 20,23-dipiperidinyl-5-O-mycaminosyl-tylonolide]
[2]
  maximum water uptake: less than 1 % (by weight)

## CC[C@H]1OC(=O)C[C@@H](O)[C@H](C)[C@@H](O[C@@H]2O[C@H](C)[C@@H](O)[C@H](N(C)C)[C@H]2O)[C@@H](CCN2CCCCC2)C[C@@H](C)C(=O)/C=C/C(C)=C/[C@@H]1CN1CCCCC1 [tBME S2 crystalline solvate, 20,23-dipiperidinyl-5-O-mycaminosyl-tylonolide]
Solubility in tBME
  solubility: 40 to 50 mg/mL
[1]; 60°C at 1 mbar (absolute) for 1 day
  stability: exhibits stability
[1]; at both ambient temperature and 70°C
  loss of solvent upon drying under vacuum: no loss of solvent was observed

## CCC1OC(=O)CC(O)C(C)C(OC2OC(C)C(O)C(N(C)C)C2O)C(CCN2CCCCC2)CC(C)C(=O)C=CC(C)=CC1CN1CCCCC1 (stereo not drawn) [Form II polymorph, 20,23-dipiperidinyl-5-O-mycaminosyl-tylonolide]
[3]; TG-FTIR
  temperature at which decomposition began: greater than 220 °C
[2]
  maximum water uptake: about 2 % (by weight)

## CCC1OC(=O)CC(O)C(C)C(OC2OC(C)C(O)C(N(C)C)C2O)C(CCN2CCCCC2)CC(C)C(=O)C=CC(C)=CC1CN1CCCCC1 (stereo not drawn) [Form III polymorph, 20,23-dipiperidinyl-5-O-mycaminosyl-tylonolide]
[3]; TG
  temperature at which decomposition began: greater than 270 °C
[2]; between 70 and 85% relative humidity
  water uptake: about 6%
